In patent US20260262643A1, “HERBICIDAL BENZOXAZINES” (FMC CORPORATION, priority 2022, published 2026):

Columns and labels:
barnyardgrass [1] = assay: Test C preemergence; type: in vivo, Echinochloa crusgalli
Procedure, shortened: (§1)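 Visual injury score, 0–100 (100 = complete control), taken 10 days after treatment relative to untreated controls. Pre: directed spray onto soil over sown seeds. Post: foliar spray at one- to two-leaf stage, 2–10 cm. Solvent/surfactant formulation; loam–sand soil; greenhouse.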

blackgrass [2] = assay: Test C preemergence; type: in vivo, Alopecurus myosuroides
Procedure, shortened: as §1

corn [3] = assay: Test C preemergence; type: in vivo, Zea mays
Procedure, shortened: as §1

foxtail, giant [4] = assay: Test C preemergence; type: in vivo, Setaria faberi
Text: (§2) Seeds of plant species selected from barnyardgrass (Echinochloa crusgalli), blackgrass (Alopecurus myosuroides), corn (Zea mays), foxtail, giant (giant foxtail, Setaria faberi), green foxtail (Setaria viridis), goosegrass (Eleusine indica), kochia (Bassia scoparia), oat, wild (wild oat, Avena fatua), pigweed, palmer (palmer amaranth, palmer pigweed, Amaranthus palmeri), Pigweed, Redroot (redroot pigweed, Amaranthus retroflexus), ragweed (common ragweed, Ambrosia artemisiifolia), ryegrass, Italian ([…] ryegrass, Lolium multiflorum), soybean (Glycine max), and wheat (Triticum aestivum) were planted into a blend of loam soil and sand and treated preemergence with a directed soil spray using test chemicals formulated in a non-phytotoxic solvent mixture which included a surfactant. At the same time, plants selected from these crops and weed species and also galium (catchweed bedstraw, Galium aparine) and horseweed (Erigeron canadensis) were planted in pots containing the same blend of loam soil and sand and treated with postemergence applications of test chemicals formulated in the same manner. Plants ranged in height from 2 to 10 cm and were in the one- to two-leaf stage for the postemergence treatment. Treated plants and untreated controls were maintained in a greenhouse for 10 days, after which time all treated plants were compared to untreated controls and visually evaluated for injury. Plant response ratings, summarized in Table C, are based on a 0 to 100 scale where 0 is no effect and 100 is complete control. A dash (-) response means no test result.

kochia [5] = assay: Test C preemergence; type: in vivo, Bassia scoparia
Procedure, shortened: as §1

oat, wild [6] = assay: Test C preemergence; type: in vivo, Avena fatua
Procedure, shortened: as §1

pigweed, palmer [7] = assay: Test C preemergence; type: in vivo, Amaranthus palmeri
Procedure, shortened: as §1

ragweed [8] = assay: Test C preemergence; type: in vivo, Ambrosia artemisiifolia
Procedure, shortened: as §1

ryegrass, Italian [9] = assay: Test C preemergence; type: in vivo, Lolium multiflorum
Procedure, shortened: as §1

soybean [10] = assay: Test C preemergence; type: in vivo, Glycine max
Procedure, shortened: as §1

wheat [11] = assay: Test C preemergence; type: in vivo, Triticum aestivum
Procedure, shortened: as §1

barnyardgrass [12] = assay: Test C postemergence; type: in vivo, Echinochloa crusgalli; conditions: 10 days, 0 to 100 scale (0 no effect, 100 complete control)
Procedure, shortened: as §1

blackgrass [13] = assay: Test C postemergence; type: in vivo, Alopecurus myosuroides; conditions: 10 days, 0 to 100 scale (0 no effect, 100 complete control)
Procedure, shortened: as §1

corn [14] = assay: Test C postemergence; type: in vivo, Zea mays; conditions: 10 days, 0 to 100 scale (0 no effect, 100 complete control)
Procedure, shortened: as §1

foxtail, giant [15] = assay: Test C postemergence; type: in vivo, Setaria faberi; conditions: 10 days, 0 to 100 scale (0 no effect, 100 complete control)
Text: as §2

kochia [16] = assay: Test C postemergence; type: in vivo, Bassia scoparia; conditions: 10 days, 0 to 100 scale (0 no effect, 100 complete control)
Procedure, shortened: as §1

oat, wild [17] = assay: Test C postemergence; type: in vivo, Avena fatua; conditions: 10 days, 0 to 100 scale (0 no effect, 100 complete control)
Procedure, shortened: as §1

pigweed, palmer [18] = assay: Test C postemergence; type: in vivo, Amaranthus palmeri; conditions: 10 days, 0 to 100 scale (0 no effect, 100 complete control)
Procedure, shortened: as §1

ragweed [19] = assay: Test C postemergence; type: in vivo, Ambrosia artemisiifolia; conditions: 10 days, 0 to 100 scale (0 no effect, 100 complete control)
Procedure, shortened: as §1

ryegrass, Italian [20] = assay: Test C postemergence; type: in vivo, Lolium multiflorum; conditions: 10 days, 0 to 100 scale (0 no effect, 100 complete control)
Procedure, shortened: as §1

soybean [21] = assay: Test C postemergence; type: in vivo, Glycine max; conditions: 10 days, 0 to 100 scale (0 no effect, 100 complete control)
Procedure, shortened: as §1

wheat [22] = assay: Test C postemergence; type: in vivo, Triticum aestivum; conditions: 10 days, 0 to 100 scale (0 no effect, 100 complete control)
Procedure, shortened: as §1

galium = assay: Test C postemergence; type: in vivo, Galium aparine; conditions: 10 days, 0 to 100 scale (0 no effect, 100 complete control)
Procedure, shortened: as §1

horseweed = assay: Test C postemergence; type: in vivo, Erigeron canadensis; conditions: 10 days, 0 to 100 scale (0 no effect, 100 complete control)
Procedure, shortened: as §1

barnyardgrass [23] = assay: Test D flooded paddy test; type: in vivo, Echinochloa crus-galli; conditions: 250 g ai/ha, applied to paddy water, visual rating after 13 to 14 days, scale 0 to 100 (0 no effect, 100 complete control)
Procedure, shortened: (§3)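 Visual ratings from 0, meaning no effect, to 100, meaning complete control, were assigned against untreated controls 13 to 14 days after compounds were added to the floodwater of pots kept 3 cm deep, with plants at the 2-leaf stage.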

ducksalad = assay: Test D flooded paddy test; type: in vivo, Heteranthera limosa; conditions: 250 g ai/ha, applied to paddy water, visual rating after 13 to 14 days, scale 0 to 100 (0 no effect, 100 complete control)
Procedure, shortened: as §3

rice = assay: Test D flooded paddy test; type: in vivo, Oryza sativa; conditions: 250 g ai/ha, applied to paddy water, visual rating after 13 to 14 days, scale 0 to 100 (0 no effect, 100 complete control)
Procedure, shortened: as §3

sedge, umbrella = assay: Test D flooded paddy test; type: in vivo, Cyperus difformis; conditions: 250 g ai/ha, applied to paddy water, visual rating after 13 to 14 days, scale 0 to 100 (0 no effect, 100 complete control)
Procedure, shortened: as §3

[24] = 500 g ai/ha, preemergence, 0 to 100 scale (0 no effect, 100 complete control)
[25] = Preemergence, 125 g ai/ha, 0 to 100 scale, 0 no effect, 100 complete control

For CCc1ncn(-c2cc(C(=O)N3CC(C(F)(F)F)Oc4c(Cl)cccc43)ccn2)n1 (racemic) [Compound 334], the “Barnyardgrass plant response rating” value (barnyardgrass [1]; [24]) was 100, the “Plant response rating, Barnyardgrass” value (barnyardgrass [1]; [25]) was 60 and the “Blackgrass plant response rating” value (blackgrass [2]; [24]) was 90. The “Plant response rating, Blackgrass” value (blackgrass [2]; [25]) was 80, the “Corn plant response rating” value (corn [3]; [24]) was 50 and the “Plant response rating, Corn” value (corn [3]; [25]) was 0. For the same compound, the “Foxtail, Giant plant response rating” value (foxtail, giant [4]; [24]) was 100, the “Plant response rating, Foxtail, Giant” value (foxtail, giant [4]; [25]) was 90 and the “Kochia plant response rating” value (kochia [5]; [24]) was 80. For the same compound, the “Plant response rating, Kochia” value (kochia [5]; [25]) was 40, the “Oat, Wild plant response rating” value (oat, wild [6]; [24]) was 30 and the “Plant response rating, Oat, Wild” value (oat, wild [6]; [25]) was 0. For the same compound, the “Pigweed, Palmer plant response rating” value (pigweed, palmer [7]; [24]) was 100, the “Plant response rating, Pigweed, Palmer” value (pigweed, palmer [7]; [25]) was 90 and the “Ragweed plant response rating” value (ragweed [8]; [24]) was 30. For the same compound, the “Plant response rating, Ragweed” value (ragweed [8]; [25]) was 0, the “Ryegrass, Italian plant response rating” value (ryegrass, Italian [9]; [24]) was 90 and the “Plant response rating, Ryegrass, Italian” value (ryegrass, Italian [9]; [25]) was 70. The “Soybean plant response rating” value (soybean [10]; [24]) was 60, the “Plant response rating, Soybean” value (soybean [10]; [25]) was 0 and the “Wheat plant response rating” value (wheat [11]; [24]) was 20. The “Plant response rating, Wheat” value (wheat [11]; [25]) was 0, the “Plant response rating, Barnyardgrass” value (barnyardgrass [12]; 500 g ai/ha, postemergence) was 90 and the “Plant response rating, Barnyardgrass” value (barnyardgrass [12]; Postemergence, 125 g ai/ha) was 20. The “Plant response rating, Blackgrass” value (blackgrass [13]; 500 g ai/ha, postemergence) was 80, the “Plant response rating, Blackgrass” value (blackgrass [13]; Postemergence, 125 g ai/ha) was 40 and the “Plant response rating, Corn” value (corn [14]; 500 g ai/ha, postemergence) was 90. The “Plant response rating, Corn” value (corn [14]; Postemergence, 125 g ai/ha) was 40, the “Plant response rating, Foxtail, Giant” value (foxtail, giant [15]; 500 g ai/ha, postemergence) was 90 and the “Plant response rating, Foxtail, Giant” value (foxtail, giant [15]; Postemergence, 125 g ai/ha) was 70. The “Plant response rating, Kochia” value (kochia [16]; 500 g ai/ha, postemergence) was 80, the “Plant response rating, Kochia” value (kochia [16]; Postemergence, 125 g ai/ha) was 80 and the “Plant response rating, Oat, Wild” value (oat, wild [17]; 500 g ai/ha, postemergence) was 40. For the same compound, the “Plant response rating, Oat, Wild” value (oat, wild [17]; Postemergence, 125 g ai/ha) was 10, the “Plant response rating, Pigweed, Palmer” value (pigweed, palmer [18]; 500 g ai/ha, postemergence) was 50 and the “Plant response rating, Pigweed, Palmer” value (pigweed, palmer [18]; Postemergence, 125 g ai/ha) was 30. The “Plant response rating, Ragweed” value (ragweed [19]; 500 g ai/ha, postemergence) was 60, the “Plant response rating, Ragweed” value (ragweed [19]; Postemergence, 125 g ai/ha) was 0 and the “Plant response rating, Ryegrass, Italian” value (ryegrass, Italian [20]; 500 g ai/ha, postemergence) was 70. For the same compound, the “Plant response rating, Ryegrass, Italian” value (ryegrass, Italian [20]; Postemergence, 125 g ai/ha) was 50, the “Plant response rating, Soybean” value (soybean [21]; 500 g ai/ha, postemergence) was 100 and the “Plant response rating, Soybean” value (soybean [21]; Postemergence, 125 g ai/ha) was 100. For the same compound, the “Plant response rating, Wheat” value (wheat [22]; 500 g ai/ha, postemergence) was 50, the “Plant response rating, Wheat” value (wheat [22]; Postemergence, 125 g ai/ha) was 20 and the “Plant response rating, Galium” value (galium; 500 g ai/ha, postemergence) was 100. For the same compound, the “Plant response rating, Galium” value (galium; Postemergence, 125 g ai/ha) was 100, the “Plant response rating, Horseweed” value (horseweed; 500 g ai/ha, postemergence) was 40 and the “Plant response rating, Horseweed” value (horseweed; Postemergence, 125 g ai/ha) was 0. The “Plant response rating, Barnyardgrass (Flood)” value (barnyardgrass [23]) was 10, the “Plant response rating, Ducksalad (Flood)” value (ducksalad) was 30 and the “Plant response rating, Rice (Flood)” value (rice) was 0. For the same compound, the “Plant response rating, Sedge, Umbrella (Flood)” value (sedge, umbrella) was 70.
